Where a SMILES comes first, the peptide text is derived from it. Bridges are numbered along the chain shown (N, C = ends). [ ]: non-standard residue; d: D form. The star is where a group is joined. d(aIle) = CC[C@H](C)[C@@H](N)C(=O)O; d(aThr) = C[C@@H](O)[C@@H](N)C(=O)O; Hexanoyl(5-Me) = CC(C)CCCC(=O)*; d(hCys) = N[C@H](CCS)C(=O)O; Orn = NCCC[C@H](N)C(=O)O; Dhb = C/C=C(\N)C(=O)O

As usually defined, the GI50 is the concentration that inhibits growth by half.

Common to all, as to format: cell-based, human
One data set concerns HT-29. Briefly: SRB colorimetric assay of cell growth and viability, HT-29. To be noted: HT-29 cells, 48 hours exposure, SRB; for GI50: read-out: GI50 (growth inhibition at 50%); for CC50: read-out: LC50 (lethal concentration at 50%).
The next data set concerns MB-231. Briefly: SRB colorimetric assay of cell growth and viability, MB-231. Particulars: for TGI (total growth inhibition): MB-231 cells, 48 hours exposure; for GI50: read-out: GI50 (growth inhibition at 50%), MB-231 cells, 48 hours exposure; for CC50: read-out: LC50 (lethal concentration at 50%), MB-231 cells, 48 hours exposure. The text has this: The finality of this assay is to interrupt the growth of a “in vitro” tumor cell culture by means a continued exhibition of the cells to the sample to be testing.
A colorimetric type of assay, using sulforhodamine B (SRB) reaction has been adapted for a quantitative measurement of cell growth and viability [following the technique described by Philip Skehan, et al. (1990), New colorimetric cytotoxicity assay for anticancer drug screening, J. Natl. Cancer Inst., 82:1107-1112].
This form of the assay employs 96 well cell culture microplates of 9 mm diameter (Faircloth, 1988; Mosmann, 1983). Most of the cell lines are obtained from American Type Culture Collection (ATCC) derived from different human cancer types.
Cells are maintained in RPMI 1640 10% FBS, supplemented with 0.1 g/l penicillin and 0.1 g/l streptomycin sulfate and then incubated at 37° C., 5% CO2 and 98% humidity. For the experiments, cells were harvested from subconfluent cultures using trypsin and resuspended in fresh medium before plating.
Cells are seeded in 96 well microtiter plates, at 5×10^3 cells per well in aliquots of 195 μL medium, and they are allowed to attach to the plate surface by growing in drug free medium for 18 hours. Afterward, samples are added in aliquots of 5 μL in a ranging from 10 to 10^−8 μg/mL, dissolved in DMSO:EtOH:PBS (0.5:0.5:99). After 48 hours exposure, the antitumor effect are measured by the SRB methodology: cells are fixed by adding 50 μL of cold 50% (wt/vol) trichloroacetic acid (TCA) and incubating for 60 minutes at 4° C. Plates are washed with deionized water and dried. One hundred μL of SRB solution (0.4% wt/vol in 1% acetic acid) is added to each microtiter well and incubated for 10 minutes at room temperature. Unbound SRB is removed by washing with 1% acetic acid. Plates are air dried and bound stain is solubilized with Tris buffer. Optical densities are read on a automated spectrophotometric plate reader at a single wavelength of 490 nm.
The values for mean+/− SD of data from triplicate wells are calculated. Some parameters for cellular responses can be calculated: GI=growth inhibition, TGI=total growth inhibition (cytostatic effect) and LC=cell killing (cytotoxic effect).
(In general: Sulforhodamine B stains cellular protein and so reports cell mass.)

A further data set deals with A-549. Put plainly: SRB colorimetric assay of cell growth and viability, A-549. To be noted: A-549 cells, 48 hours exposure, SRB; for GI50: read-out: GI50 (growth inhibition at 50%); for CC50: read-out: LC50 (lethal concentration at 50%).

For `C/C=C1\NC(=O)[C@H](Cc2ccccc2)NC(=O)[C@@H](C(C)C)NC(=O)[C@@H]([C@@H](C)CC)NC(=O)[C@H](NC(=O)[C@@H](CCS)NC(=O)[C@H](CCCN)NC(=O)[C@H]2CCCN2C(=O)[C@@H](CCS)NC(=O)[C@@H](NC(=O)[C@@H](NC(=O)[C@H](NC(=O)CCCC(C)C)C(C)C)[C@@H](C)O)C(C)C)[C@@H](C)OC(=O)[C@H](C(C)C)NC1=O` [Compound 109, [D-homoCys^7, D-homoCys^10]-KF] ({Hexanoyl(5-Me)}-[dV]TV[d(hCys)][dP][Orn][d(hCys)][d(aThr)][d(aIle)][dV]F[Dhb]V; ester 8-C), the “TGI (total growth inhibition)” value in the data set with HT-29, in the data set with MB-231 and in the data set on A-549 was 6.26E−06 Molar in each case. Besides, the GI50 with HT-29 and with A-549 was 6.26 µM in each case. The CC50 in the data set with HT-29 and with A-549 was 6.26 µM in each case.

Regarding `C/C=C1\NC(=O)[C@H](Cc2ccccc2)NC(=O)[C@@H](C(C)C)NC(=O)[C@@H]([C@@H](C)CC)NC(=O)[C@H](NC(=O)[C@H](NC(=O)[C@@H](CCCN)NC(=O)[C@@H]2CCCN2C(=O)[C@H](NC(=O)[C@@H](NC(=O)[C@@H](NC(=O)[C@H](NC(=O)CCCC(C)C)C(C)C)[C@@H](C)O)C(C)C)C(C)C)[C@@H](C)CC)[C@@H](C)OC(=O)[C@H](C(C)C)NC1=O` [Compound 106, [D-Orn^8, L-Pro^9]-KF], the “TGI (total growth inhibition)” value with HT-29, in the data set with MB-231 and in the data set on A-549 was 6.77E−06 Molar in each case. The figures for the GI50 in the data set on HT-29, in the data set on MB-231 and in the data set on A-549 were 6.77 µM, no less than 6.77 µM and 6.77 µM, respectively. For the same molecule, the CC50 with HT-29 was 6.77 µM; with MB-231 it was no less than 6.77 µM; with A-549 it was 6.77 µM.

Regarding `C/C=C1\NC(=O)[C@H](Cc2ccccc2)NC(=O)[C@@H](C(C)C)NC(=O)[C@@H]([C@@H](C)CC)NC(=O)[C@H](NC(=O)[C@H](NC(=O)[C@H](CCCN)NC(=O)[C@H]2CCCN2C(=O)[C@H](NC(=O)[C@@H](NC(=O)[C@@H](NC(=O)[C@H](NC(=O)[C@]23CCC(C)(C)C[C@H]2C2=CC[C@@H]4[C@@]5(C)CC[C@H](O)C(C)(C)[C@@H]5CC[C@@]4(C)[C@]2(C)CC3)C(C)C)[C@@H](C)O)C(C)C)C(C)C)[C@@H](C)CC)[C@@H](C)OC(=O)[C@H](C(C)C)NC1=O` [Compound 102, [AO^14]-KF], in the data set with HT-29, the “TGI (total growth inhibition)” value is 5.54E−06 Molar, the GI50 was determined as 5.54 µM and the CC50 amounted to 5.54 µM. The “TGI (total growth inhibition)” value in the data set on MB-231 turned out to be 5.54E−06 Molar. In the data set on A-549, the “TGI (total growth inhibition)” value amounted to 5.54E−06 Molar, the GI50 came out at 4.53 µM and the CC50 came out at 5.54 µM.

Regarding `C/C=C1\NC(=O)[C@H](Cc2ccccc2)NC(=O)[C@@H](C(C)C)NC(=O)[C@@H]([C@@H](C)CC)NC(=O)[C@H](NC(=O)[C@H](NC(=O)[C@H](CCCN)NC(=O)[C@H]2CCCN2C(=O)[C@H](NC(=O)[C@@H](NC(=O)[C@@H](NC(=O)[C@H](NC(=O)CCCC(C)C)C(C)C)[C@@H](C)O)C(C)C)C(C)C)[C@H](C)CC)[C@@H](C)OC(=O)[C@H](C(C)C)NC1=O` [Compound 104, [D-Ile^7]-KF], the “TGI (total growth inhibition)” value in the data set on HT-29 stood at 3.39E−07 Molar; in the data set with MB-231, 5.34E−06 Molar; in the data set on A-549, 1.13E−06 Molar. The GI50 with HT-29 is 0.314 µM; in the data set with MB-231 it was 5.09 µM; with A-549, 0.942 µM. The figures for the CC50 with HT-29, in the data set on MB-231 and with A-549 were 0.371 µM, 5.59 µM and 1.51 µM, respectively.

With `C/C=C1\NC(=O)[C@H](Cc2ccccc2)NC(=O)[C@@H](C(C)C)NC(=O)[C@@H]([C@@H](C)CC)NC(=O)[C@H](NC(=O)[C@H](NC(=O)[C@H](CCCN)NC(=O)[C@H]2CCCN2C(=O)[C@H](NC(=O)[C@@H](NC(=O)[C@@H](NC(=O)[C@H](NC(=O)CCCC(C)C)C(C)C)[C@@H](C)O)C(C)C)C(C)C)[C@@H](C)CC)[C@@H](C)OC(=O)[C@@H](C(C)C)NC1=O` [Compound 110, [D-Val^1]-KF], in the data set on HT-29, the “TGI (total growth inhibition)” value amounted to 5.15E−07 Molar, the GI50 was 0.408 µM and the CC50 was found to be 0.691 µM. In the data set on MB-231, the “TGI (total growth inhibition)” value is 3.71E−06 Molar, the GI50 worked out at 3.2 µM and the CC50 came to 6.28 µM. Moreover, in the data set with A-549, the “TGI (total growth inhibition)” value was found to be 1.13E−06 Molar, the GI50 is 0.879 µM and the CC50 came to 1.63 µM.

Turning to `C/C=C1\NC(=O)[C@H](Cc2ccccc2)NC(=O)[C@@H](C(C)C)NC(=O)[C@@H]([C@@H](C)CC)NC(=O)[C@H](NC(=O)[C@@H](CS)NC(=O)[C@H](CCCN)NC(=O)[C@H]2CCCN2C(=O)[C@@H](CS)NC(=O)[C@@H](NC(=O)[C@@H](NC(=O)[C@H](NC(=O)CCCC(C)C)C(C)C)[C@@H](C)O)C(C)C)[C@@H](C)OC(=O)[C@H](C(C)C)NC1=O` [Compound 108, [D-Cys^7, D-Cys^10]-KF] ({Hexanoyl(5-Me)}-[dV]TV[dC][dP][Orn][dC][d(aThr)][d(aIle)][dV]F[Dhb]V; ester 8-C), in the data set on HT-29, the “TGI (total growth inhibition)” value is recorded as 6.53E−06. Molar, the 50% growth inhibitory concentration (GI50) came to 6.53 µM and the CC50 was 6.53 µM. In addition, the “TGI (total growth inhibition)” value in the data set with MB-231 is recorded as 6.53E−06. Molar. Besides, in the data set on A-549, the “TGI (total growth inhibition)” value is on record as 6.53E−06. Molar, the GI50 is 6.53 µM and the CC50 was 6.53 µM.

In the case of `C/C=C1\NC(=O)[C@H](Cc2ccccc2)NC(=O)[C@@H](C(C)C)NC(=O)[C@@H]([C@@H](C)CC)NC(=O)[C@H](NC(=O)[C@H](NC(=O)[C@H](CCCN)NC(=O)[C@H]2CCCN2C(=O)[C@H](NC(=O)[C@@H](NC(=O)[C@@H](NC(=O)[C@H](N=C(N(C)C)N(C)C)C(C)C)[C@@H](C)O)C(C)C)C(C)C)[C@@H](C)CC)[C@@H](C)OC(=O)[C@H](C(C)C)NC1=O` [Compound 103, [[C(═N(CH3)2)^14]-KF], the “TGI (total growth inhibition)” value in the data set with HT-29, in the data set on MB-231 and with A-549 was 6.83E−06 Molar throughout.
